ChEMBL document CHEMBL1141284, “Transdermal penetration behaviour of drugs: CART-clustering, QSPR and selection of model compounds” (Bioorg Med Chem, 2007)

Tested on: Zone of skin
Assay: Permeability coefficient in human skin

SMILES | log Kp
CC1(C)O[C@@H]2C[C@H]3[C@@H]4CCC5=CC(=O)C=C[C@]5(C)[C@@]4(F)[C@@H](O)C[C@]3(C)[C@]2(C(=O)CO)O1 [TRIAMCINOLONE ACETONIDE] | -6.99
C[C@]12C=CC(=O)C=C1CC[C@H]1[C@@H]3C[C@@H](O)[C@](O)(C(=O)CO)[C@@]3(C)C[C@H](O)[C@@]12F [TRIAMCINOLONE] | -8.95
